In patent US8461305B2, “L-fucose α1→6 specific lectin” (J-Oil Mills, Inc., priority 2008, dated 2013):

What was measured:
[1] = hemagglutinating inhibition test with sugars (sugar binding specificity); assay type: cell-based
Description: The sugar binding specificity of lectin also can be confirmed by using erythrocytes that can be specifically agglutinated by the lectin to investigate the sugar type that may inhibit the agglutination of the erythrocytes and the concentration thereof.
Various monosaccharides, oligosaccharides, and polysaccharides shown in Table 2 and glycoproteins shown in Table 3 were subjected to hemagglutinating inhibition test to evaluate PTL of Example 1 and the SRL of Example 2 with regard to the sugar binding specificity.
On a 96 well U-bottom microtiter plate, double dilution series of 10 μl of monosaccharide, oligosaccharide, polysaccharide, and glycoprotein solutions were prepared. Then, lectin solution adjusted in advance to have titer 4 was added in an amount of 10 μl to the respective wells. Then, the plate was subjected to a still-standing at a room temperature for one hour for sensitization. Then, 10 μl of 4%-red blood cell suspension was added to the respective wells and the plate was further subjected to a still-standing at a room temperature for one hour. […] The lowest concentration showing the inhibition was assumed as the minimum inhibition concentration. The lower the minimum inhibition concentration is, the higher the specificity to lectin is.
For comparison, the sugar binding specificity was evaluated using the following commercially-available lectins: Comparison Example 1: AAL (SEIKAGAKU BIOBUSINESS CORPORATION—J-OIL MILLS, Inc.), Comparison Example 2: AOL (TOKYO CHEMICAL INDUSTRY CO., LTD.—Gekkeikan Sake Company, Ltd.), Comparison Example 3: LCA (SEIKAGAKU BIOBUSINESS CORPORATION—J-OIL MILLS, Inc.), and Comparison Example 4: PSA (SEIKAGAKU BIOBUSINESS CORPORATION—J-OIL MILLS, Inc.).

[2] = frontal affinity chromatography (FAC), association constant to PA sugar chains having other L-fucose; assay type: binding; details: for binding to non-L-fucose α1→6 sugar chain: FAC; for association constant Ka: 25 degrees C.
Experimental: The following section will describe a method of calculating an association constant by frontal affinity chromatography (FAC). This method is based on the following principle. […] Then, the elution front end (front) is observed immediately. When there is an affinity with lectin, the elution of the sugar chain is delayed.
The preparation of a lectin column used in the apparatus is performed in the method as described below. 1. Purified lectin is dissolved in 0.1 to 0.2M of NaHCO3 buffer solution (pH 8.3 to 8.5). 2. The lectin is immobilized, via a lectin primary amino group, a carrier such as NHS activated sepharose. 3. Then, the lectin is blocked by Tris buffer solution including primary amine or ethanolamine for example. 4. Lectin-sepharose is suspended in 10 mM Tris buffer, including 0.8% of NaCl (pH 7.4, TBS). Then, lectin immobilized resin is filled in a miniature column (φ2 mm×10 mm, 31.4 μl). 5. The miniature column in which the lectin immobilized resin is filled is protected by a holder and the lectin column is connected to an FAC automatic analysis apparatus (FAC-1, SHIMADZU CORPORATION).
Then, the elution of the PA sugar chain from the column is detected by a fluorescence detector (excitation wavelength/fluorescence wavelength: 310 nm/380 nm).
Based on the detection data, by using the elution front end (Vo) of the sugar chain (PA rhamnose) not interacting with lectin as a reference, the delay (V−Vo) of the elution front end (V) of a sugar chain interacting with lectin is calculated as an interaction strength. Then, based on the following FAC criteria expressions, the association constant (Ka) between the sugar chain and lectin is calculated based on V−Vo and Bt. If the interaction strength (V−Vo value) and the association constant are higher, a higher affinity is caused between lectin and an L-fucose α1→6 sugar chain.
[In the formula, A means substance used for the elution, Ao means the initial concentration of the substance A, B means a immobilized ligand, V means the elution volume, Vo means the elution front end volume of the substance not interacting with the immobilized ligand B at all, Bt means an effective ligand amount, Kd means a dissociation constant (an inverse of the association constant)].
Pyridylaminated (PA) sugar chains shown in FIG. 1 and FIG. 2 were used to frontal affinity chromatography (FAC) analysis. PA sugars were purchased from TAKARA BIO INC., SEIKAGAKU BIOBUSINESS CORPORATION, and Masuda Chemical Industries co., LTD. PA sugar were also obtained by pyridylaminating, by GlycoTAG®(TAKARA BIO INC.), an unlabeled sugar chain or a sugar chain obtained by subjecting a sugar chain to enzyme digestion for example.
Lectin was dissolved in 0.2 M NaHCO3 buffer solution (pH 8.3) including 0.5 M NaCl and coupled to the NHS-activated sepharose (GE Healthcare Bioscience) by following the manufacturer's instructions. Then, lectin immobilized sepharose was suspended in 10 mM Tris buffer (pH 7.4, TBS) including […] and the resultant matter was filled in a miniature column (φ2 mm×10 mm, 31.4 μl).
Frontal affinity chromatography was performed using FAC automatic analysis apparatus (FAC-1, SHIMADZU CORPORATION). In particular, the above-prepared lectin column was inserted to a stainless steel holder and the holder was connected to FAC-1 apparatus. The flow rate and the column temperature were maintained at 0.125 ml/min and 25 degrees C., respectively. After the miniature column was equilibrated by the TBS, an excessive volume (0.5 ml to 4 ml) of a PA sugar chain (3.75 nM or 7.5 nM) was continuously inputted to the column using an automatic sampling apparatus.
The fluorescent strength of the eluate of the PA sugar (excitation wavelength of 310 nm and fluorescence wavelength of 380 nm) was monitored to measure the interaction strength [a difference of the front end eluate to the standard oligosaccharide (PA rhamnose): V−V0]. […]

[3] = Sugar chain No. 728 (as listed in Table 5/12)

| binding to non-L-fucose α1→6 sugar chain [2] | Substance | association constant Ka ([2]; Sugar chain No. 419) [M⁻¹] | association constant Ka ([2]; Sugar chain No. 420) [M⁻¹] | association constant Ka ([2]; Sugar chain No. 718) [M⁻¹] | association constant Ka ([2]; Sugar chain No. 719) [M⁻¹] | association constant Ka ([2]; Sugar chain No. 720) [M⁻¹] | association constant Ka ([2]; Sugar chain No. 721) [M⁻¹] | association constant Ka ([2]; Sugar chain No. 722) [M⁻¹] | association constant Ka ([2]; Sugar chain No. 723) [M⁻¹] | association constant Ka ([2]; Sugar chain No. 726) [M⁻¹] | association constant Ka ([2]; Sugar chain No. 727) [M⁻¹] | association constant Ka [2, 3] [M⁻¹] | association constant Ka ([2]; Sugar chain No. 729) [M⁻¹] | association constant Ka ([2]; Sugar chain No. 730) [M⁻¹] | association constant Ka ([2]; Sugar chain No. 731) [M⁻¹] | association constant Ka ([2]; Sugar chain No. 739) [M⁻¹] | association constant Ka ([2]; Sugar chain No. 909) [M⁻¹] | association constant Ka ([2]; Sugar chain No. 910) [M⁻¹] | association constant Ka ([2]; Sugar chain No. 931) [M⁻¹] | association constant Ka ([2]; Sugar chain No. 932) [M⁻¹] | further results |
| --- | --- | --- | --- | --- | --- | --- | --- | --- | --- | --- | --- | --- | --- | --- | --- | --- | --- | --- | --- | --- | --- |
| not detected at all | Naematoloma sublateritium lectin [NSL] | <1000 | <1000 | <1000 | <1000 | <1000 | <1000 | <1000 | <1000 | <1000 | <1000 | <1000 | <1000 | <1000 | <1000 | <1000 | <1000 | <1000 | <1000 | <1000 | association constant Ka ([2]; Sugar chain No. 933): <1000 M⁻¹ |
| not detected at all | Lepista sordida lectin [LSL, novel lectin purified from the mushroom Lepista sordida] | <1000 | <1000 | <1000 | <1000 | <1000 | <1000 | <1000 | <1000 | <1000 | <1000 | <1000 | <1000 | <1000 | <1000 | <1000 | <1000 | <1000 | <1000 | <1000 | association constant Ka ([2]; Sugar chain No. 933): <1000 M⁻¹ |

| Substance | binding to non-L-fucose α1→6 sugar chain [2] | association constant Ka ([2]; Sugar chain No. 419) [M⁻¹] | association constant Ka ([2]; Sugar chain No. 420) [M⁻¹] | association constant Ka ([2]; Sugar chain No. 718) [M⁻¹] | association constant Ka ([2]; Sugar chain No. 719) [M⁻¹] | association constant Ka ([2]; Sugar chain No. 720) [M⁻¹] | association constant Ka ([2]; Sugar chain No. 721) [M⁻¹] | association constant Ka ([2]; Sugar chain No. 722) [M⁻¹] | association constant Ka ([2]; Sugar chain No. 723) [M⁻¹] | association constant Ka ([2]; Sugar chain No. 726) [M⁻¹] | association constant Ka ([2]; Sugar chain No. 727) [M⁻¹] | association constant Ka [2, 3] [M⁻¹] | association constant Ka ([2]; Sugar chain No. 729) [M⁻¹] | association constant Ka ([2]; Sugar chain No. 730) [M⁻¹] | association constant Ka ([2]; Sugar chain No. 731) [M⁻¹] | association constant Ka ([2]; Sugar chain No. 739) [M⁻¹] | association constant Ka ([2]; Sugar chain No. 909) [M⁻¹] | association constant Ka ([2]; Sugar chain No. 910) [M⁻¹] | association constant Ka ([2]; Sugar chain No. 931) [M⁻¹] | association constant Ka ([2]; Sugar chain No. 932) [M⁻¹] | further results |
| --- | --- | --- | --- | --- | --- | --- | --- | --- | --- | --- | --- | --- | --- | --- | --- | --- | --- | --- | --- | --- | --- |
| Stropharia rugosoannulata lectin [SRL, novel L-fucose α1→6 specific lectin purified from the mushroom Stropharia rugosoannulata] | not bound | <1000 | <1000 | <1000 | <1000 | <1000 | <1000 | <1000 | <1000 | <1000 | <1000 | <1000 | <1000 | <1000 | <1000 | <1000 | <1000 | <1000 | <1000 | <1000 | minimum inhibition concentration of hemagglutination ([1]; inhibitor: Fructose): >100 mM; minimum inhibition concentration of hemagglutination ([1]; inhibitor: Galactose): >100 mM; minimum inhibition concentration of hemagglutination ([1]; inhibitor: Glucose): >100 mM; minimum inhibition concentration of hemagglutination ([1]; inhibitor: L-fucose): >100 mM; minimum inhibition concentration of hemagglutination ([1]; inhibitor: Lactose): >6 mM; minimum inhibition concentration of hemagglutination ([1]; inhibitor: Maltose): >100 mM; minimum inhibition concentration of hemagglutination ([1]; inhibitor: Mannose): >100 mM; minimum inhibition concentration of hemagglutination ([1]; inhibitor: Melibiose): >100 mM; minimum inhibition concentration of hemagglutination ([1]; inhibitor: Metyl α-mannoside): >100 mM; minimum inhibition concentration of hemagglutination ([1]; inhibitor: N-Acetylneuraminic acid): >100 mM; minimum inhibition concentration of hemagglutination ([1]; inhibitor: N-acetylgalactosamine): >100 mM; minimum inhibition concentration of hemagglutination ([1]; inhibitor: N-acetylglucosamine): >100 mM; minimum inhibition concentration of hemagglutination ([1]; inhibitor: N-glycolylneuraminic acid): >100 mM; minimum inhibition concentration of hemagglutination ([1]; inhibitor: Raffinose): >100 mM; minimum inhibition concentration of hemagglutination ([1]; inhibitor: Rhamnose): >100 mM; minimum inhibition concentration of hemagglutination ([1]; inhibitor: Serial lactose): >6 mM; minimum inhibition concentration of hemagglutination ([1]; inhibitor: Sucrose): >100 mM; minimum inhibition concentration of hemagglutination ([1]; inhibitor: Xylose): >100 mM; association constant Ka ([2]; Sugar chain No. 933): <1000 M⁻¹ |
